Data set [1] in a line: log P determination by HPLC on reversed-phase column (C 18), EEC Directive 79/831 Annex V.A8. Type of data set: physicochemical. Particulars: for chromatographic logP: reversed-phase HPLC column (C 18). The method, then:
In table 1, the log P values were determined in accordance with EEC Directive 79/831 Annex V.A8 by HPLC (High Performance Liquid Chromatography) on a reversed-phase column (C 18), using the method described below:
temperature: 40° C.; mobile phases: 0.1% aqueous formic acid and acetonitrile; linear gradient from 10% acetonitrile to 95% acetonitrile; Calibration was carried out using unbranched alkan-2-ones (comprising 3 to 16 carbon atoms) with known log P values (determination of the log P values by the retention times using linear interpolation between two successive alkanones). lambda-max-values were determined using UV-spectra from 200 nm to 400 nm and the peak values of the chromatographic signals.

In data set [2] the test system is Colletotrichum lindemuthianum. Description: Example B: in vitro cell test on Colletotrichum lindemuthianum. Type of data set: cell-based. Particulars: 120 h, 20 ppm of active ingredient, liquid culture, 5 days incubation, read-out: efficacy (inhibition of fungal growth).
The subject of the next data set is Pyricularia oryzae. Description: microbe, parasite or virus in culture. The data set is classed as cell-based. The note with it: 120 h, read-out: efficacy (inhibition of fungal growth).
The mark [3] stands for this setting: Table 1, HPLC, 40° C., 0.1% aqueous formic acid and acetonitrile.
Where [4] appears, read: Table 2, compounds of formula (IIa), defined as for table 1.

Data on 67 compounds can be found in patent US20200275656A1, “TRISUBSTITUTEDSILYLMETHYLPHENOXYQUINOLINES AND ANALOGUES” (Bayer Aktiengesellschaft, priority 2017, published 2020).

Broadly, the logP is the decadic logarithm of the partition coefficient of the neutral form, usually between octanol and water. Take `C[Si](C)(C)Cc1ccc(Nc2cnc3ccccc3c2)c(C[Si](C)(C)C)c1` [I.43]: the logP in data set [1] (setting [3]) amounted to 5.85. On the same count and under the same terms, then `C[Si](C)(Cc1ccccc1Oc1cnc2c(F)cccc2c1)c1ccccc1` [I.40], with 5.78; and `C[Si](C)(C)Cc1cc(Cl)ccc1Nc1cnc2c(C(F)(F)F)cccc2c1` [I.55], with 6.00; and `COc1ccc([Si](C)(C)Cc2ccccc2Oc2cnc3c(F)cccc3c2)cc1` [I.59], with 5.62. For the compound `C[Si](C)(Cc1c(Cl)cccc1Oc1cnc2ccccc2c1)c1ccccc1` [I.53], the logP in data set [1] (setting [3]) was found to be 6.43. The same measure, in the same setting: then `Cc1nc2c(F)c(F)ccc2nc1Oc1cccc(Cl)c1C[Si](C)(C)O` [I.49], with 4.13; and `Cc1nc2c(F)c(F)ccc2nc1Oc1ccccc1C[Si](C)(C)C` [I.32], with 5.81.

The compound `C[Si](C)(C)Cc1cc(F)ccc1Nc1cnc2ccccc2c1` [I.08] returned a logP in data set [1] (setting [3]) of 3.69. The compound `Cc1nc2c(F)c(F)ccc2cc1Oc1ccc(F)cc1C[Si](C)(C)C` [I.34] yielded a logP in data set [1] (setting [3]) of 5.92.

`Cc1cccc2cc(Nc3ccc(F)cc3C[Si](C)(C)c3ccccc3)cnc12` [I.50] returned a logP in data set [1] (setting [3]) of 4.90. On the same count and under the same terms, to `C[Si](C)(C)Cc1ccccc1Nc1cnc2c(F)c(F)ccc2c1` [I.23] belongs 5.03; to `C[Si](C)(C)Cc1c(Cl)cccc1Oc1cnc2ccccc2c1` [I.22], 6.17.

For the compound `Cc1cccc2cc(Nc3ccc(F)cc3C[Si](C)(C)C)cnc12` [I.16], in data set [1] (setting [3]), the logP was determined as 4.56. As for `C[Si](C)(C)Cc1c(Cl)cccc1Oc1cnc2c(C(F)(F)F)cccc2n1` [I.57], in data set [1] (setting [3]), the logP was found to be 6.51.

With `C[Si](C)(Cc1c(F)cccc1Oc1cnc2ccccc2c1)c1cccs1` [I.47], the logP in data set [1] (setting [3]) is 5.65. The compound `COc1ccc([Si](C)(C)Cc2c(F)cccc2Oc2cnc3ccccc3c2)cc1` [I.60] came in with a logP in data set [1] (setting [3]) of 5.65. `C[Si](C)(C)Cc1c(F)cccc1Oc1cnc2c(C(F)(F)F)cccc2c1` [I.45] showed a logP in data set [1] (setting [3]) of 6.32. Take `C[Si](C)(C)Cc1ccccc1Oc1cnc2ccccc2n1` [I.04]: the logP in data set [1] (setting [3]) was found to be 5.36. In the case of `C[Si](C)(Cc1c(Cl)cccc1Oc1cnc2ccccc2c1)c1cccs1` [I.56], the logP in data set [1] (setting [3]) is listed as 6.20. In the case of `Cc1nc2ccccc2cc1Oc1ccc(F)cc1C[Si](C)(C)C` [I.20], the logP in data set [1] (setting [3]) was 5.01. Same read-out and setting: to `C[Si](C)(C)Cc1c(F)cccc1Oc1cnc2c(C(F)(F)F)cccc2n1` [I.48] belongs 6.04; to `C[Si](C)(Cc1c(F)cccc1Oc1cnc2ccccc2c1)c1ccccc1` [I.41], 5.91.

In data set [1] (setting [3]), `C[Si](C)(C)Cc1ccc(Nc2cnc3c(C(F)(F)F)cccc3c2)c(C[Si](C)(C)C)c1` [I.65] registered a logP of 7.36.

With `C=C[Si](C)(C)Cc1c(Cl)cccc1Oc1cnc2ccccc2c1` [I.27], the logP in data set [1] (setting [3]) came to 6.11. The same measure, in the same setting: then `C[Si](C)(C)Cc1ccccc1Oc1cnc2c(F)c(F)ccc2c1` [I.24], with 5.72; and `C[Si](C)(C)Cc1ccccc1Oc1cnc2c(C(F)(F)F)cccc2c1` [I.35], with 6.28. Same read-out and setting: then `C[Si](C)(C)Cc1cc(F)ccc1Nc1cnc2c(C(F)(F)F)cccc2c1` [I.42], with 5.54; and `COc1ccc([Si](C)(C)Cc2c(Cl)cccc2Oc2cnc3ccccc3c2)cc1` [I.63], with 6.20. One may read the chromatographic logP as a lipophilicity value derived from retention on a column. A higher chromatographic logP goes with higher lipophilicity. The compound `OCc1ccccc1Oc1cnc2c(F)cccc2c1` [V.01, {2-[(8-fluoroquinolin-3-yl)oxy]phenyl}methanol] showed a chromatographic logP in data set [1] (Table 3, compounds of formula (V), defined as for table 1) of 2.17.

The compound `C=C[Si](C)(C)Cc1c(F)cccc1Oc1cnc2ccccc2c1` [I.15] displayed a logP in data set [1] (setting [3]) of 5.57. On the same count and under the same terms, then `C[Si](C)(C)Cc1ccccc1Cc1cnc2ccccc2c1` [I.01], with 4.28; and `Cc1cccc2cc(Oc3ccccc3C[Si](C)(C)C)cnc12` [I.06], with 6.60.

`C[Si](C)(Cc1cc(Cl)ccc1Nc1cnc2ccccc2c1)c1ccccc1` [I.52] yielded a logP in data set [1] (setting [3]) of 4.69. Take `C[Si](C)(C)Cc1ccccc1Oc1cnc2ccccc2c1` [I.02]: the logP in data set [1] (setting [3]) was found to be 5.48. Still for that read-out and setting: to `C[Si](C)(C)Cc1ccccc1Oc1cnc2c(F)cccc2n1` [I.12] belongs 5.26.

`C[Si](C)(C)Cc1ccccc1Oc1cnc2c(C(F)(F)F)cccc2n1` [I.37] returned a logP in data set [1] (setting [3]) of 5.97. Usually inhibition stands for how much of the control response was suppressed. As for `C[Si](C)(O)Cc1c(Cl)cccc1Oc1cnc2ccccc2c1` [I.25, [2-chloro-6-(quinolin-3-yloxy)benzyl](dimethyl)silanol], the chromatographic logP in data set [1] (setting [3]) and in data set [1] (stated in preparation examples) was 3.48 each time. Also, the inhibition at 20 ppm in data set [2] lay in the range of 90 to 100%. Compound `Cc1cccc2cc(Oc3cccc(F)c3C[Si](C)(C)c3ccccc3)cnc12` [I.51] came in with a logP in data set [1] (setting [3]) of 6.90.

In the case of `Cc1nc2ccccc2cc1Oc1ccc(Cl)cc1C[Si](C)(C)C` [I.29], the logP in data set [1] (setting [3]) was determined as 5.71.

Regarding `Cc1nc2c(F)cccc2cc1Oc1ccccc1C[Si](C)(C)C` [I.17, 8-fluoro-2-methyl-3-{2-[(trimethylsilyl)methyl]phenoxy}quinoline], the chromatographic logP in data set [1] (setting [3]) and in data set [1] (stated in preparation examples) was 5.85 throughout.

Compound `C[Si](C)(O)Cc1ccccc1Cc1cnc2ccccc2c1` [I.03] displayed a logP in data set [1] (setting [3]) of 2.13. As for `C[Si](C)(C)Cc1c(F)cccc1Oc1cnc2c(F)c(F)ccc2n1` [I.33], the logP in data set [1] (setting [3]) is reported as 5.60.

`Cc1nc2c(F)c(F)ccc2cc1Nc1ccccc1C[Si](C)(C)C` [I.30]: the logP in data set [1] (setting [3]) is given as 5.32. With `Fc1cccc2cc(Oc3ccccc3CBr)cnc12` [IIa.03, 3-[2-(bromomethyl)phenoxy]-8-fluoroquinoline], the chromatographic logP in data set [1] (setting [4]) amounted to 3.58; in data set [1] (stated in preparation examples) it was 3.65. `Cc1cccc2cc(Oc3ccccc3C[Si](C)(C)c3ccccc3)cnc12` [I.38] came in with a logP in data set [1] (setting [3]) of 6.83. `C[Si](C)(C)Cc1ccccc1Oc1cnc2c(F)c(F)ccc2n1` [I.26] showed a logP in data set [1] (setting [3]) of 5.54. Take `Cc1nc2ccccc2cc1Oc1ccccc1C[Si](C)(C)C` [I.05, 2-methyl-3-{2-[(trimethylsilyl)methyl]phenoxy}quinoline]: the chromatographic logP in data set [1] (setting [3]) and in data set [1] (stated in preparation examples) was 5.05 in each case. Besides, the inhibition at 20 ppm (in the data set on Pyricularia oryzae; in data set [2]) was 90 to 100% throughout. Compound `ClCc1c(Cl)cccc1Oc1cnc2ccccc2c1` [IIa.01, 3-[3-chloro-2-(chloromethyl)phenoxy]quinoline] displayed a chromatographic logP in data set [1] (setting [4]) of 3.94. In turn, `Cc1nc2c(F)c(F)ccc2nc1Oc1cccc(Cl)c1C[Si](C)(C)C` [I.44] came in with a logP in data set [1] (setting [3]) of 6.40. `C[Si](C)(C)Cc1cc(Cl)ccc1Nc1cnc2ccccc2c1` [I.21] returned a logP in data set [1] (setting [3]) of 4.39. In turn, `COc1ccccc1[Si](C)(C)Cc1c(Cl)cccc1Oc1cnc2ccccc2c1` [I.62] yielded a logP in data set [1] (setting [3]) of 6.50. `C[Si](C)(C)Cc1c(F)cccc1Oc1cnc2ccccc2c1` [I.11]: in data set [1] (setting [3]), the log partition coefficient (logP) came out at 5.54.

`Cc1nc2ccccc2nc1Oc1ccccc1C[Si](C)(C)C` [I.07]: the logP in data set [1] (setting [3]) was found to be 5.59. For `Cc1cccc2cc(Nc3ccc(Cl)cc3C[Si](C)(C)c3ccccc3)cnc12` [I.58], the logP in data set [1] (setting [3]) is given as 5.68.

The compound `C[Si](C)(C)Cc1ccccc1Nc1cnc2c(F)cccc2c1` [I.09] registered a logP in data set [1] (setting [3]) of 4.77. In the case of `Fc1cccc(Oc2cnc3ccccc3c2)c1CCl` [IIa.02, 3-[2-(chloromethyl)-3-fluorophenoxy]quinoline], the chromatographic logP in data set [1] (setting [4]) came to 3.57. Consider `Cc1cccc2cc(Nc3ccc(Cl)cc3C[Si](C)(C)C)cnc12` [I.28], for which the logP in data set [1] (setting [3]) is 5.38. Take `COc1ccccc1[Si](C)(C)Cc1c(F)cccc1Oc1cnc2ccccc2c1` [I.61]: the logP in data set [1] (setting [3]) amounted to 6.01. Still for that read-out and setting: then `Cc1nc2c(F)c(F)ccc2nc1Oc1c(F)cccc1C[Si](C)(C)C` [I.36], with 5.87; and `Cc1cccc2cc(Nc3ccc(C[Si](C)(C)C)cc3C[Si](C)(C)C)cnc12` [I.54], with 6.93. Consider `C[Si](C)(O)Cc1c(F)cccc1Oc1cnc2ccccc2c1` [I.13], for which the logP in data set [1] (setting [3]) turned out to be 3.15.

For `Cc1nc2ccccc2cc1Oc1cccc(F)c1C[Si](C)(C)C` [I.18], the logP in data set [1] (setting [3]) is recorded as 5.38.

In data set [1] (setting [3]), `C=C[Si](C)(C)Cc1ccccc1Oc1cnc2c(F)cccc2c1` [I.14] yielded a logP of 5.45. Consider `C[Si](C)(Cc1ccccc1Oc1cnc2c(F)cccc2c1)c1cccs1` [I.46, 3-(2-{[dimethyl(2-thienyl)silyl]methyl}phenoxy)-8-fluoroquinoline], for which the chromatographic logP in data set [1] (setting [3]) and in data set [1] (stated in preparation examples) was 5.6 throughout. In addition, the inhibition at 20 ppm (in the data set on Pyricularia oryzae; in data set [2]) was 90 to 100% in each case. The compound `Cc1cccc2cc(Oc3cccc(F)c3C[Si](C)(C)C)cnc12` [I.19] gave a logP in data set [1] (setting [3]) of 6.70.

In data set [1] (setting [3]), `C[Si](C)(C)Cc1ccccc1Oc1cnc2c(F)cccc2c1` [I.10] came in with a logP of 5.45.

In turn, `C[Si](C)(Cc1cc(F)ccc1Nc1cnc2ccccc2c1)c1ccccc1` [I.39] came in with a log partition coefficient (logP) in data set [1] (setting [3]) of 3.99.
